Experimental data from ChEMBL document CHEMBL1932998, “Design, synthesis and evaluation of polar head group containing 2-keto-oxazole inhibitors of FAAH” (Bioorg Med Chem, 2012).
The source made the active and inactive calls. The calls are words filed in the database; no cut-off is given here.

Experiments:
[1] = target: T1, Fatty-acid amide hydrolase 1 (Rattus norvegicus) (UniProt P97612); test: Inhibition of Sprague-Dawley rat brain FAAH assessed as residual activity at 10 uM after 60 mins by reverse phase HPLC-based fluorescence method
T1 sequence (whole entry): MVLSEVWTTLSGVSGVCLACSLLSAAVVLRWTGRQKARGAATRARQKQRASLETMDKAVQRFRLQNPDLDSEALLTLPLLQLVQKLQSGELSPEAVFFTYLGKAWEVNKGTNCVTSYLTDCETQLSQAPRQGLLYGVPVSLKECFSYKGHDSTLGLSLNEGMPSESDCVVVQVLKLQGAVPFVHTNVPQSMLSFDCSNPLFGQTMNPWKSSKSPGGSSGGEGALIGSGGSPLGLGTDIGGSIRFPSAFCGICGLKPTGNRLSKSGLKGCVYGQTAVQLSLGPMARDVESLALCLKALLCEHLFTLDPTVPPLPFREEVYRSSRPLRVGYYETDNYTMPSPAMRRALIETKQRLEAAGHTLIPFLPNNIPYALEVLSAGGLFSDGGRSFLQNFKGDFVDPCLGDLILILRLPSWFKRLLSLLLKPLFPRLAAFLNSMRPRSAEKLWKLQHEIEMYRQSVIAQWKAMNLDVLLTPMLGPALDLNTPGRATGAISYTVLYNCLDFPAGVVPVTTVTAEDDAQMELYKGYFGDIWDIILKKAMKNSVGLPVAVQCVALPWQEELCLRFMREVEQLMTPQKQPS

[2] = target: T1, Fatty-acid amide hydrolase 1 (Rattus norvegicus); test: (§1) Inhibition of Sprague-Dawley rat brain microsome FAAH assessed as reduction in 4-pyren-1-ylbutanoic acid release after 60 mins by reverse phase HPLC-based fluorescence method
[3] = target: T2, Fatty-acid amide hydrolase 1 (Rattus norvegicus, UniProt P97612); test: as §1
T2 sequence (P97612 whole entry): T1 sequence (whole entry)

[4] = Inhibition of cPLA2alpha at 1 uM
[5] = target: Acyl-protein thioesterase 1 (Homo sapiens) (UniProt O75608); test: Inhibition of APT1 at 50 uM
Acyl-protein thioesterase 1 (Homo sapiens), sequence (O75608 whole entry): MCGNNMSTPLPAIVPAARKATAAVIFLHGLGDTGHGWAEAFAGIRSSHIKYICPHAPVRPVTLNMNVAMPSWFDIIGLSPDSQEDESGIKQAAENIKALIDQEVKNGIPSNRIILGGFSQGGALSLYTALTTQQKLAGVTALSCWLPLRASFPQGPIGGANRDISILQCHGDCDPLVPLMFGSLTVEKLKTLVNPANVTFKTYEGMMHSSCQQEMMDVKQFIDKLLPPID

[6] = target: Acyl-protein thioesterase 2 (Homo sapiens) (UniProt O95372); test: Inhibition of APT2 at 50 uM
Acyl-protein thioesterase 2 (Homo sapiens), sequence (O95372 whole entry): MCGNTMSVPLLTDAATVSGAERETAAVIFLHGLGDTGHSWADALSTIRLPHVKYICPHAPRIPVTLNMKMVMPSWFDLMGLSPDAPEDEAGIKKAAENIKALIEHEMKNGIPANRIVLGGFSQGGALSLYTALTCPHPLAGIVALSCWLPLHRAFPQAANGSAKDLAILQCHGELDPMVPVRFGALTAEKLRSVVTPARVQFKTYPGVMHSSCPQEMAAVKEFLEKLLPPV

Activity [1] | inhibition [2] | SMILES | also measured
13% | – | CCCCCCCCCCCC(=O)c1ncc(CCCS(=O)(=O)CCC[N+](C)(C)C)o1 | IC50 [3]: 1900 nM
53% | – | CCCCCCCC(=O)c1ncc(CCCS(=O)(=O)CCC[N+](C)(C)C)o1 | –
62% | – | CCCCCCCC(=O)c1ncc(CCCCCCS(=O)(=O)CCCN(C)C)o1 | –
53% | inactive | CCCCCCCCCCCC(=O)c1ncc(CCCCCS(=O)(=O)CCCN(C)C)o1 | –
3% | – | CCCCCCCCCCCC(=O)c1ncc(CCS(=O)(=O)CCCN(C)C)o1 | IC50 [3]: 370 nM
70% | – | CCCCCCCC(=O)c1ncc(CCCCCS(=O)(=O)CCC[N+](C)(C)C)o1 | –
73% | – | CCCCCCCC(=O)c1ncc(CCCCCS(=O)(=O)CCCN(C)C)o1 | –
31% | inactive | CCCCCCCCCCCC(=O)c1ncc(CCCCCCS(=O)(=O)CCC[N+](C)(C)C)o1 | –
61% | – | CCCCCCCC(=O)c1ncc(CCS(=O)(=O)CCC[N+](C)(C)C)o1 | –
57% | inactive | CCCCCCCCCCCC(=O)c1ncc(CCCCCS(=O)(=O)CCC[N+](C)(C)C)o1 | –
49% | inactive | CCCCCCCCCCCC(=O)c1ncc(CCCCS(=O)(=O)CCC[N+](C)(C)C)o1 | –
22% | – | CCCCCCCC(=O)c1ncc(CCCS(=O)(=O)CCCN(C)C)o1 | IC50 [3]: 2400 nM
59% | – | CCCCCCCC(=O)c1ncc(CCCCS(=O)(=O)CCCN(C)C)o1 | –
23% | – | CCCCCCCC(=O)c1ncc(CCS(=O)(=O)CCCN(C)C)o1 | IC50 [3]: 2000 nM
2% | – | CCCCCCCCCCCC(=O)c1ncc(CCCS(=O)(=O)CCCN(C)C)o1 | IC50 [3]: 290 nM; inhibition [4]: inactive; inhibition [5]: inactive; inhibition [6]: inactive
83% | – | CCCCCCCC(=O)c1ncc(CCCCS(=O)(=O)CCC[N+](C)(C)C)o1 | –
32% | inactive | CCCCCCCCCCCC(=O)c1ncc(CCCCS(=O)(=O)CCCN(C)C)o1 | –
68% | – | CCCCCCCC(=O)c1ncc(CCCCSCCC[N+](C)(C)C)o1 | –
11% | – | CCCCCCCCCCCC(=O)c1ncc(CCS(=O)(=O)CCC[N+](C)(C)C)o1 | IC50 [3]: 1400 nM
82% | – | CCCCCCCC(=O)c1ncc(CCCCCCSCCC[N+](C)(C)C)o1 | –

The next lines start with the molecule.

SMILES | Activity [1] | inhibition [2] | also measured
CCCCCCCC(=O)c1ncc(CCCSCCCN(C)C)o1 | 64% | – | –
CCCCCCCC(=O)c1ncc(CCCCCSCCCN(C)C)o1 | 78% | – | –
CCCCCCCCCCCC(=O)c1ncc(CCCCCCS(=O)(=O)CCCN(C)C)o1 | 51% | inactive | –
Cc1nc(-c2ccccc2)c(-c2ccccc2)n1CCCCCCNC(=O)Oc1ccccc1 | – | – | IC50 [3]: 340 nM
CCCCCCCCCCCC(=O)c1ncc(CCCCCCSCCCN(C)C)o1 | 72% | inactive | –
CCCCCCCC(=O)c1ncc(CCCCCCSCCCN(C)C)o1 | 78% | – | –
O=C(CCCCCc1ccccc1)c1nc2ncccc2o1 | – | – | IC50 [3]: 2.9 nM
CCCCCCCCCCCC(=O)c1ncc(CCCCSCCCN(C)C)o1 | 49% | inactive | –
CCCCCCCCCCCC(=O)c1ncc(CCCCCCSCCC[N+](C)(C)C)o1 | 71% | inactive | –
CCCCCCCC(=O)c1ncc(CCSCCCN(C)C)o1 | 34% | – | –
CCCCCCCCCCCC(=O)c1ncc(CCSCCC[N+](C)(C)C)o1 | 78% | inactive | –
CCCCCCCCCCCC(=O)c1ncc(CCCCCSCCCN(C)C)o1 | 64% | inactive | –
CCCCCCCCCCCC(=O)c1ncc(CCSCCCN(C)C)o1 | 27% | inactive | –
CCCCCCCCCCCC(=O)c1ncc(CCCCSCCC[N+](C)(C)C)o1 | 78% | inactive | –
CCCCCCCC(=O)c1ncc(CCSCCC[N+](C)(C)C)o1 | inactive | – | –
CCCCCCCCCCCC(=O)c1ncc(CCCSCCCN(C)C)o1 | 40% | inactive | –
CCCCCCCC(=O)c1ncc(CCCCSCCCN(C)C)o1 | 48% | – | –
